Values quoted from earlier work as cited in patent US20060069238A1, “Synthetic glyco-lipo-peptides as vaccines” (Biomira, Inc., priority 2002, published 2006).

Conditions: n-octanol:water, experimental database of LogKow; cited from earlier work

SMILES: Cc1c[nH]c2ccccc12 [3-methyl indole]
- LogP Exp: 2.60
